The values that follow come from ChEMBL document CHEMBL6087454, “Identification of Novel Organo-Se BTSA-Based Derivatives as Potent, Reversible, and Selective PPARγ Covalent Modulators for Antidiabetic Drug Discovery” (J Med Chem, 2025).

Data set [1] deals with T1, Peroxisome proliferator-activated receptor gamma (Homo sapiens, UniProt P37231).
T1 sequence (P37231 whole entry): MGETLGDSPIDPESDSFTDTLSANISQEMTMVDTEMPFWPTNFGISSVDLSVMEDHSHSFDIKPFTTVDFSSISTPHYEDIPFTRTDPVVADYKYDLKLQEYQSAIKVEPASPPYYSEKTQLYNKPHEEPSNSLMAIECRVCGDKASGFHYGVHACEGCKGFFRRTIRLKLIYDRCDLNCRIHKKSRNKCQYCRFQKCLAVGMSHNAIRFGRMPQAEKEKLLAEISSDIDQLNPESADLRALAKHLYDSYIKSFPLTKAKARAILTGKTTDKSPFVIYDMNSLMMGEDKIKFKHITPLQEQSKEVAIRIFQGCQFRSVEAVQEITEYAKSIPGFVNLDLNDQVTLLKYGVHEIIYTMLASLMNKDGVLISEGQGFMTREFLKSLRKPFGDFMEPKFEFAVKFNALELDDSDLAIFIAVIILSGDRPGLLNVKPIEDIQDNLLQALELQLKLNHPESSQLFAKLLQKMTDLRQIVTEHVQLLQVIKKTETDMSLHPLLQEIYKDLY
Nature of the data set: Binding affinity to recombinant GST-tagged human PPAR-gamma ligand binding domain (E235 to Y505 residues) extracted from Escherichia coli BL21 (DE3) cells assessed as inhibition constant in presence of fluormone pan-PPAR green tracer by TR-FRET assay. For orientation: TR-FRET usually uses a lanthanide donor and a delayed reading to cut background.

Data set [2] concerns the target T1, Peroxisome proliferator-activated receptor gamma. Nature of the data set: Displacement of fluormone pan-PPAR green from recombinant GST-tagged human PPAR-gamma ligand binding domain (E235 to Y505 residues) extracted from Escherichia coli BL21 (DE3) cells by TR-FRET assay.
A short description of data set [3]: Toxicity in male db/db mouse model assessed as lipid accumulation in liver at 10 mg/kg/day, po administered for 4 weeks. The class given is organism-based. The following applies: in vivo, 672 h.
A short description of data set [4]: Toxicity in male db/db mouse model assessed as increase in blood triglyceride level at 10 mg/kg/day, po administered for 4 weeks by ELISA. The class given is organism-based. Particulars: in vivo, 672 h.
The nature of data set [5]: Toxicity in male db/db mouse model assessed as increase in brown adipocytes size at 10 mg/kg/day, po administered for 4 weeks by H and E staining based analysis. Format: organism-based. Particulars: in vivo, 672 h.
Data set [6] can be described thus: Toxicity in male db/db mouse model assessed as increase in white adipocytes size at 10 mg/kg/day, po administered for 4 weeks by H and E staining based analysis. The following applies: in vivo, 672 h. The class given is organism-based.
A further data set has as its system 3T3-L1. Nature of the data set: Induction of adipocyte differentiation in mouse 3T3-L1 cells assessed as lipid accumulation at 1 uM measured after 48 hrs in presence of 1-oxido-1-(4-(tosyloxy)phenyl)-1lambda4-benzo[d][1,3,2]thiaselenazol-5-yl 4-methylbenzenesulfonate by Oil red O staining based inverted microscopic analysis. Format: functional, cell-based.
A short description of data set [7]: Toxicity in male db/db mouse model assessed as increase in serum ALT level at 10 mg/kg/day, po administered for 4 weeks by ELISA. The class given is organism-based. The following applies: in vivo, 672 h.
Data set [8] in a line: Toxicity in male db/db mouse model assessed as increase in liver weight at 10 mg/kg/day, po administered for 4 weeks. The class given is organism-based. Particulars: in vivo, 672 h.
The nature of data set [9]: Toxicity in male db/db mouse model assessed as increase in blood cholesterol level at 10 mg/kg/day, po administered for 4 weeks by ELISA. Format: organism-based. Particulars: in vivo, 672 h.
A short description of data set [10]: Toxicity in male db/db mouse model assessed as hepatomegaly in liver at 10 mg/kg/day, po administered for 4 weeks. The class given is organism-based. Particulars: in vivo, 672 h.
A short description of data set [11]: Toxicity in male db/db mouse model assessed as increase in serum AST level at 10 mg/kg/day, po administered for 4 weeks by ELISA. Format: organism-based. Particulars: in vivo, 672 h.
Data set [12] in a line: Toxicity in male db/db mouse model assessed as increase in lipid accumulation in liver at 10 mg/kg/day, po administered for 4 weeks by Oil red O staining based analysis. The following applies: in vivo, 672 h. The class given is organism-based.
Data set [13] addresses T2, Peroxisome proliferator-activated receptor gamma (Homo sapiens) (UniProt P37231).
T2 sequence (whole entry): T1 sequence (P37231 whole entry)
Nature of the data set: Covalent binding affinity to recombinant PPAR-gamma ligand binding domain (unknown origin) at Cys285 residue at 0.4 uM incubated for 30 mins by rhodamine-maleimide staining based SDS-PAGE analysis.

pIC50, pKi: −log10 of the molar value. Activity calls are given as the source filed them. No cut-off for these calls is given here. Where only a bound is given, the exact number is not on record here.

Take `O=S1(c2ccc(-c3ccccc3)cc2)=N[Se]c2cc(-c3ccccc3)ccc21` (stereo not given): the pKi in data set [1] is 6.22. In data set [2], the pIC50 was 5.77.
For `O=S1(c2ccc(Cl)cc2)=N[Se]c2cc(Cl)ccc21` (stereo not given), in that order: 4.84 and 4.39.
Turning to `O=[N+]([O-])c1ccc(S2(=O)=N[Se]c3cc([N+](=O)[O-])ccc32)cc1` (stereo not given), in data set [1], the pKi is 6.62. Further, the pIC50 in data set [2] was 6.17.
With `O=S1(c2ccc(Br)cc2)=N[Se]c2cc(Br)ccc21` (stereo not given), in data set [1], the pKi is 6.28. Moreover, the pIC50 in data set [2] is 5.83.
For `Cc1cccc(S2(=O)=N[Se]c3ccc(C)cc32)c1` (stereo not given), in that order: 5.53 and 5.08.
The matching figures for `COc1cccc(S2(=O)=N[Se]c3ccc(OC)cc32)c1` (stereo not given): 5.93 and 5.48.
For the compound `Cc1ccc2c(c1)[Se]N=S2(C)=O` (stereo not given), in [1], the pKi was under 4.74. For the same compound, the pIC50 in [2] was under 4.30.
Take `O=S1(c2ccc(C(F)(F)F)cc2)=N[Se]c2cc(C(F)(F)F)ccc21` (stereo not given): in data set [1], the pKi was 6.21. Also, the negative-log IC50 (pIC50) in data set [2] is 5.76.
In the case of `CS1(=O)=N[Se]c2cccc(Cl)c21` (stereo not given), the pKi in [1] was under 4.74. For the same compound, the pIC50 in data set [2] was under 4.30.
Turning to `CS1(=O)=N[Se]c2ccc(Cl)cc21` (stereo not given), the pKi in [1] is under 4.74. Besides, the pIC50 in [2] was under 4.30.
For `CCS1(=O)=N[Se]c2ccccc21` (stereo not given), the pKi in [1] was under 4.74. The pIC50 in [2] was under 4.30.
Consider `Cc1ccccc1S1(=O)=N[Se]c2cccc(C)c21` (stereo not given), for which the negative logarithm of the Ki (pKi) in data set [1] was 4.85. Besides, the pIC50 in data set [2] is 4.41.
On to `O=S1(C2CC2)=N[Se]c2ccccc21` (stereo not given), for which the pKi in data set [1] was under 4.74. Also, the pIC50 in data set [2] is under 4.30.
On to `O=S1(c2cccc(Cl)c2)=N[Se]c2ccc(Cl)cc21` (stereo not given), for which the pKi in [1] is 6.64. Further, the pIC50 in [2] is 6.19.
For `Cc1ccc(S2(=O)=N[Se]c3cc(C)ccc32)cc1` (stereo not given), in that order: 5.34 and 4.90.
On to `COC(=O)c1ccc2c(c1)[Se]N=S2(C)=O` (stereo not given), for which the pKi in data set [1] was under 4.74. Further, in data set [2], the pIC50 is under 4.30.
For the compound `CS1(=O)=N[Se]c2cc(Cl)ccc21` (stereo not given), the pKi in data set [1] was under 4.74. Further, in [2], the pIC50 was under 4.30.
`CC(C)(C)c1ccc(S2(=O)=N[Se]c3cc(C(C)(C)C)ccc32)cc1` (stereo not given): in data set [1], the pKi is 6.35. Further, the pIC50 in [2] is 5.91.
Take `CN(CCOc1ccc(CC2SC(=O)NC2=O)cc1)c1ccccn1` (stereo not given) [ROSIGLITAZONE]: the Activity entry in [3] is “Toxic”; in [4] it was “Non-toxic”; in data set [5], “Toxic”; in [6] it was “Toxic”; in [7] it was “Toxic”; in [8], “Toxic”. Besides, the Activity result in data set [9], in data set [10], in data set [11] and in data set [12] was “Toxic” each time. Further, the outcome (with 3T3-L1; in data set [13]) was inactive.
Take `O=S(=O)(Oc1ccc(S2(=O)=N[Se]c3cc(OS(=O)(=O)C(F)(F)F)ccc32)cc1)C(F)(F)F` (stereo not given): the pKi in data set [1] is 6.05. Further, the pIC50 in [2] is 5.61.
For `O=S1(c2ccccc2)=N[Se]c2ccccc21` (stereo not given), in that order: under 4.74 and under 4.30.
Take `O=S1(CCl)=N[Se]c2ccccc21` (stereo not given): in data set [1], the pKi was under 4.74. Besides, the pIC50 in data set [2] was under 4.30.
Turning to `CS1(=O)=N[Se]c2ccccc21` (stereo not given), in data set [1], the pKi was under 4.74. Also, in data set [2], the pIC50 is under 4.30.
`CCCc1ccc(S2(=O)=N[Se]c3cc(CCC)ccc32)cc1` (stereo not given): the pKi in data set [1] is 6.12. Moreover, the pIC50 in data set [2] was 5.68.
For the compound `Cc1cc(C)cc(S2(=O)=N[Se]c3c(C)cc(C)cc32)c1` (stereo not given), the pKi in data set [1] was 4.86. Moreover, in data set [2], the pIC50 is 4.42.

What is called pKi is the negative decadic logarithm of the Ki, by convention in mol/L. For orientation: pIC50 means −log10 of the IC50, conventionally taken in molar units.
